Like-named read-outs stand apart in the source and are kept apart here.
How the values were obtained:
[1] = Pharmacokinetic evaluation in mice, IV and PO; assay type: in vivo, Balb/c female mice; conditions: for Bioavailability (%) / bioavailability: mouse; for bioavailability: plasma; for Vd: read-out: Vdss
Experimental: The tested compound was mixed with 10% DMSO/50% PEG400/40% water, vortexized and ultrasonic to prepare 0.2 mg/mL or 0.4 mg/ml, approximately clarified solution, which was filtered by a microporous membrane and then standby. Balb/c female mice of 18-20 g were selected and given the candidate compound solution intravenously at a dose of 1 or 2 mg/kg. The tested compound was mixed with 10% DMSO/50% PEG400/40% water, vortexized and ultrasonic to prepare 0.2 mg/mL or 1 mg/mL approximately clarified solution, which was filtered by a microporous membrane and then standby. Balb/c female mice of 18 to 20 g were selected and given orally the candidate compound solution at a dose of 2 or 10 mg/kg. Whole blood was collected for a certain period of time, and plasma was prepared. Drug concentration was analyzed by LC-MS/MS method, and pharmacokinetic parameters were calculated by Phoenix WinNonlin software (US Pharsight company).
C0: instantaneous concentration required after intravenous injection; Cmax: the highest blood concentration after administration; Tmax: time required to reach peak concentration after administration; T1/2: the time required for blood drug concentration to decrease by half; Vdss: apparent volume of distribution, which refers to the ratio constant of drug dosage to blood concentration when a drug reaches dynamic equilibrium in vivo. Cl: clearance rate, referring to drug apparent distribution volume number removed from the body per unit time; Tlast: time of last detection point: AUC0-last: an area under a drug duration curve, referring to an area surrounded by the blood drug concentration curve on the time axis; Bioavailability: a measure of the rate and extent of drug absorption into the blood circulation, which was an important index to evaluate drug absorption degree.

[2] = test system: human small cell lung cancer NCI-H69 xenograft tumor model; assay: NCI-H69 xenograft, mono and combination with etoposide, 24-day experiment (Table 8); assay type: in vivo, BALB/c nude mice; conditions: for Tumor volume (mm^3) (0th day) / Tumor volume (mm^3) (24th day): average ± SEM, n = 9
Experimental: Experiment example 3: in vivo pharmacodynamics of human small cell lung cancer NCI-H69 cell subcutaneous xenograft tumor BALB/c nude mouse model:
Experimental animals: Female BALB/c nude mice, 6-8 weeks old, weighing 15-22 grams; supplier: Shanghai Linchang Biotechnology Co., LTD. (Linchang, Shanghai)
Human small cell lung cancer NCI-H69 cells (ATCC, item number: HTB-119 and ECACC-95111733) were cultured in vitro in a culture condition of RPMI-1640 medium with 10% fetal bovine serum, 100 U/mL penicillin and 100 μg/mL streptomycin, incubated at 37° C. and 5% CO2. Conventional passage was carried out twice a week. When cell saturation was 80%-90% and the number reaches the requirement, cells were collected, counted and inoculated.
0.2 mL (10×10^6) NCI-H69 cells (with matrix glue, and volume ratio of 1:1) were subcutaneously inoculated into a right back of each mouse, and group administration was initiated when the average tumor volume reaches about 110-120 mm^3.
The tested compound was prepared as a 5 mg/mL clarified solution with 10% DMSO+50% polyethylene glycol 400+40% water as the solvent.
The experimental indicators refers to study whether tumor growth was inhibited, delayed, or cured. Tumor diameter was measured twice a week with a vernier caliper. The calculation formula of the tumor volume was V=0.5a×b^2, and a and b represent the long diameter and short diameter of the tumor, respectively.
The antitumor efficacy of the compound was evaluated by TGI (%) or relative tumor proliferation rate T/C (%). TGI (%) reflects the tumor growth inhibition rate. The calculation of TGI (%): TGI (%)=[1−(average tumor volume at the end of administration of a certain treatment group−average tumor volume at the beginning of administration of the treatment group)/(average tumor volume at the end of treatment in solvent control group−average tumor volume at the beginning of treatment in solvent control group)]×control group.
Relative tumor proliferation rate T/C (%): the calculation formula was as follows: T/C %=[…] TRTV/CRTV group (TRTV: treatment group RTV; CRTV: negative control group RTV). According to results of tumor measurement, Relative Tumor Volume (RTV) was calculated by the formula RTV=Vt/V0, where V0 was the average tumor volume measured in group administration (i.e., d0), and Vt was the average tumor volume measured in a certain single measurement. TRTV and CRTV collect data on the same day.
Statistic analysis includes an average value and a standard error (SEM) of tumor volume at each time point for each group. […] If there was no significant difference in F value, Dunnet (2-sided) method was applied to analysis. All data were analyzed using SPSS 17.0. P<0.05 was considered as having a significant difference.

DNA-PK (h) = molecular target: T1, DNA-PK (h) (Homo sapiens, UniProt P78527); assay: DNA-PK kinase inhibitory activity (HTRF, Eurofins); assay type: biochemical; conditions: ATP: 10 μM
T1 construct: Eurofins Pharma Discovery Service (contract assay)
Experimental: This experiment was tested at Eurofins Pharma Discovery Service, Reaction Biology Corp. (RBC)
[…] DNA-PK: Mg/ATP; GST-cMyc-p53; EDTA; Ser15 antibody; ATP: 10 μM; biotinylated phosphatidylinositol-3,4,5-triphosphate; GST label GRP1 PH domain; streptavidin and phycocyanin; europium-labelled monoclonal antibody against GST.
DNA-PK (h) was incubated in a determination buffer containing 50 nM GST-cMyc-p53 and Mg/ATP (density as required). The reaction was initiated by adding a mixture of Mg/ATP. After incubating at room temperature for 30 min, a termination solution containing EDTA was added to terminate the reaction. Finally, a detection buffer (containing labeled anti-GST monoclonal antibody and europium-labeled anti-phosphate Ser15 antibody against phosphorylated p53) was added. Then, the board was read in time-resolved fluorescence mode, and a Homogeneous Time Resolved Fluorescence (HTRF) signal was measured according to the formula HTRF=10000×(Em665 nm/Em620 nm).

[3] = 10 mg/kg, BID + etoposide 10 mg/kg, IP
[4] = 20 mg/kg, QD + etoposide 10 mg/kg, IP
[5] = 40 mg/kg, PO, BID + etoposide 10 mg/kg, IP
[6] = 40 mg/kg, PO, QD + etoposide 10 mg/kg, IP
[7] = 40 mg/kg, PO, QD + etoposide 10 mg/kg, IP, 3-day administration, 4-day withdrawal
[8] = female, Balb/c, IV(1 mg/kg), mouse plasma
[9] = female, Balb/c, IV(2 mg/kg), mouse plasma
[10] = female, Balb/c, PO(2 mg/kg), mouse plasma
[11] = female, Balb/c, PO(10 mg/kg), mouse plasma

SMILES: COc1ccc(C(O)c2cc(-c3cnnc4c(F)c(N5CCOCC5)cc(F)c34)c(F)cc2Cl)nn1 (single isomer, unassigned) [Embodiment 19]
- AUC0-last ([1]; IV(1 mg/kg), mouse plasma): 1.569 µM·h
- C0 ([1]; IV(1 mg/kg), mouse plasma): 1290 nM
- Cl ([1]; IV(1 mg/kg), mouse plasma): 20.2 mL/min/kg
- T1/2 ([1]; IV(1 mg/kg), mouse plasma): 78.6 min
- Tlast ([1]; IV(1 mg/kg), mouse plasma): 8.00 h
- Vdss ([1]; IV(1 mg/kg), mouse plasma): 2.13 L/kg
- AUC0-last ([1]; IV(2 mg/kg), mouse plasma): 3.832 µM·h
- C0 ([1]; IV(2 mg/kg), mouse plasma): 2250 nM
- Tlast ([1]; IV(2 mg/kg), mouse plasma): 8.00 h
- Bioavailability (%) ([1]; PO(2 mg/kg)): 47.9%
- AUC0-last ([1]; PO(2 mg/kg), mouse plasma): 1.503 µM·h
- Cmax ([1]; PO(2 mg/kg), mouse plasma): 448 nM
- T1/2 ([1]; PO(2 mg/kg), mouse plasma): 488 min
- Tlast ([1]; PO(2 mg/kg), mouse plasma): 8.00 h
- Tmax ([1]; PO(2 mg/kg), mouse plasma): 15 min
- Bioavailability (%) ([1]; PO(10 mg/kg)): 70.5%
- AUC0-last ([1]; PO(10 mg/kg), mouse plasma): 13.737 µM·h
- Cmax ([1]; PO(10 mg/kg), mouse plasma): 2740 nM
- T1/2 ([1]; PO(10 mg/kg), mouse plasma): 107 min
- Tlast ([1]; PO(10 mg/kg), mouse plasma): 12.0 h
- Tmax ([1]; PO(10 mg/kg), mouse plasma): 60 min
- RTV (24th day) [2, 3]: 4.93 ± 0.42
- T/C (%) (24th day) [2, 3]: 61.2%
- TGI (%) (24th day) [2, 3]: 46.5%
- Tumor volume (mm^3) (0th day) ([2]; 10 mg/kg, BID + etoposide 10 mg/kg, IP, 3-day administration, 4-day withdrawal): 114 ± 9 mm^3
- Tumor volume (mm^3) (24th day) [2, 3]: 548 ± 44 mm^3
- RTV (24th day) [2, 4]: 4.08 ± 032
- T/C (%) (24th day) [2, 4]: 50.6%
- TGI (%) (24th day) [2, 4]: 56.8%
- Tumor volume (mm^3) (0th day) ([2]; 20 mg/kg, QD + etoposide 10 mg/kg, IP, 3-day administration, 4-day withdrawal): 114 ± 7 mm^3
- Tumor volume (mm^3) (24th day) [2, 4]: 464 ± 41 mm^3
- RTV (24th day) ([2]; 40 mg/kg, BID, alone): 6.91 ± 0.18
- T/C (%) (24th day) ([2]; 40 mg/kg, BID, alone): 85.8%
- TGI (%) (24th day) ([2]; 40 mg/kg, BID, alone): 16.8%
- Tumor volume (mm^3) (0th day) ([2]; 40 mg/kg, BID, alone): 114 ± 7 mm^3
- Tumor volume (mm^3) (24th day) ([2]; 40 mg/kg, BID, alone): 789 ± 49 mm^3
- RTV (24th day) [2, 5]: 2.28 ± 0.26
- T/C (%) (24th day) [2, 5]: 28.4%
- TGI (%) (24th day) [2, 5]: 81.5%
- Tumor volume (mm^3) (0th day) ([2]; 40 mg/kg, PO, BID + etoposide 10 mg/kg, IP, 3-day administration, 4-day withdrawal): 114 ± 10 mm^3
- Tumor volume (mm^3) (24th day) [2, 5]: 264 ± 37 mm^3
- RTV (24th day) [2, 6]: 3.11 ± 0.18
- T/C (%) (24th day) [2, 6]: 38.6%
- TGI (%) (24th day) [2, 6]: 70.5%
- Tumor volume (mm^3) (0th day) [2, 7]: 114 ± 7 mm^3
- Tumor volume (mm^3) (24th day) [2, 6]: 353 ± 33 mm^3
- IC50 (DNA-PK (h)): 2.1 nM

SMILES: COc1ccc([C@@H](O)c2cc(-c3nncc4cc(N5CCOCC5)ccc34)c(F)cc2Cl)nn1 [Embodiment M3814, reference compound]
- Tlast ([1]; IV(1 mg/kg), mouse plasma): 6.00 h
- Tlast ([1]; IV(2 mg/kg), mouse plasma): 4.00 h
- Tlast ([1]; PO(2 mg/kg), mouse plasma): 8.00 h
- Tlast ([1]; PO(10 mg/kg), mouse plasma): 8.00 h
- bioavailability ([1]; female, Balb/c, PO(2 mg/kg)): 25.8%
- bioavailability ([1]; female, Balb/c, PO(10 mg/kg)): 54%
- AUC(0-t) [1, 8]: 1.33 µM·h
- C0 [1, 8]: 1970 nM
- clearance [1, 8]: 25.9 mL/min/kg
- half-life [1, 8]: 42.4 min
- Vd [1, 8]: 1.34 L/kg
- AUC(0-t) [1, 9]: 1.41 µM·h
- C0 [1, 9]: 2160 nM
- clearance [1, 9]: 49 mL/min/kg
- half-life [1, 9]: 28.7 min
- Vd [1, 9]: 1.9 L/kg
- AUC(0-t) [1, 10]: 0.688 µM·h
- Cmax [1, 10]: 580 nM
- half-life [1, 10]: 128 min
- Tmax ([1]; female, Balb/c, PO(2 mg/kg), mouse plasma, read-out: Tmax): 15 min
- AUC(0-t) [1, 11]: 3.73 µM·h
- Cmax [1, 11]: 2060 nM
- half-life [1, 11]: 85.8 min
- Tmax ([1]; female, Balb/c, PO(10 mg/kg), mouse plasma, read-out: Tmax): 30 min
- RTV (24th day) [2, 6]: 3.47 ± 0.24
- T/C (%) (24th day) [2, 6]: 43.1%
- TGI (%) (24th day) [2, 6]: 66.1%
- Tumor volume (mm^3) (0th day) [2, 7]: 114 ± 8 mm^3
- Tumor volume (mm^3) (24th day) [2, 6]: 389 ± 28 mm^3
- RTV (24th day) ([2]; 40 mg/kg, QD, alone): 6.77 + 0.45
- T/C (%) (24th day) ([2]; 40 mg/kg, QD, alone): 84.1%
- TGI (%) (24th day) ([2]; 40 mg/kg, QD, alone): 19.8%
- Tumor volume (mm^3) (0th day) ([2]; 40 mg/kg, QD, alone): 114 ± 8 mm^3
- Tumor volume (mm^3) (24th day) ([2]; 40 mg/kg, QD, alone): 764 ± 59 mm^3
- IC50 (DNA-PK (h)): 1 nM
